The source of these data is publication PMC9694711, “Synthesis of Paclitaxel Derivatives for Remote Loading into Liposomes and Improved Therapeutic Effect” (Molecules, 2022).

The GI50 is the concentration at which growth is held to half of that of the control.

For assay [1], the system named is breast cancer cell line 4T1. The assay can be described thus: MTT assay, cytotoxicity on 4T1. In kind it is cell-based, mouse. Particulars: for GI50: Mus musculus, MTT, 72 h, mean of two independent determinations; for inhibition % at fixed concentration, 4T1 (printed in GI50 column): @100 nM. The method, then:
(§1) MTT assay was applied to verify the rationality of the molecular combination strategy. The cytotoxicity of the compounds was evaluated on lung cancer cell line A549, colon cancer cell line HCT-116, breast cancer cell line 4T1 and normal hepatocyte cell line LO2. Paclitaxel was used as a positive drug. […] The therapeutic index (TI) for LO2/HCT-116, LO2/A549 and LO2/4T1 of active compounds 4a, 4d, 13a, 17a, 17c and paclitaxel are shown in Table 2.
(§2) Cells were inoculated in 96-well plates (cell density 2 × 10^4 cells/well) followed by incubation for 24 h at 37 °C. Paclitaxel and target compounds were added to the corresponding well. Subsequently, the cultures were incubated for 72 h. After the MTT solution (50 µL, 2 mg/mL) was added to cultures, the plates were incubated for an additional 4 h. Purple colored formazan crystals were dissolved in 200 µL DMSO, and the absorbance was recorded at 570 nm using Synergy HT, Bio-Tek (Winooski, VT, USA).
On the technique in general: Formazan colour is commonly taken as a measure of viable cells.

Assay [2] has as its system lung cancer cell line A549. The assay can be described thus: MTT assay, cytotoxicity on A549. The class given is cell-based, human. Particulars: Homo sapiens, A549; MTT, 72 h; mean of two independent determinations. The method, then: as §1, §2
In assay [3] the test system is colon cancer cell line HCT-116. The assay can be described thus: MTT assay, cytotoxicity on HCT-116. The conditions noted are these: for GI50: Homo sapiens, HCT-116, MTT, 72 h, mean of two independent determinations. The class given is cell-based, human. The method, then: as §1, §2
Assay [4] has as its system normal hepatocyte cell line LO2. The assay can be described thus: MTT assay, cytotoxicity on normal cell LO2. The class given is cell-based. Particulars: for inhibition % at fixed concentration, LO2 (printed in GI50 column): @2 μM; for GI50: Hepatocyte, MTT, 72 h, mean of two independent determinations. On the procedure:
as §1, §2

With `CC(=O)OC12COC1CC(O)C1(C)C(=O)C(O)C3=C(C)C(OC(=O)C(OC(=O)CCC(=O)OCc4ccc(B(O)O)cc4)C(NC(=O)OC(C)(C)C)c4ccccc4)CC(O)(C(OC(=O)c4ccccc4)C21)C3(C)C` (stereo not drawn) [Compound 4b, 2’-O-[4-((4-boronobenzyl)oxy)-4-oxobutyryl]docetaxel], the GI50 in assay [1] is 54.7 nM.

As to `CC(=O)OC1C(=O)C2(C)C(O)CC3OCC3(OC(C)=O)C2C(OC(=O)c2ccccc2)C2(O)CC(OC(=O)C(OC(=O)CCCC(=O)OCc3ccc(B(O)O)cc3)C(NC(=O)c3ccccc3)c3ccccc3)C(C)=C1C2(C)C` (stereo not drawn) [Compound 4c, 2’-O-[5-((4-boronobenzyl)oxy)-5-oxopentanoyl]taxol], the GI50 in assay [1] was more than 100 nM.

Turning to `CC(=O)OC1C(=O)C2(C)C(O)CC3OCC3(OC(C)=O)C2C(OC(=O)c2ccccc2)C2(O)CC(OC(=O)C(OC(=O)CCSSCCC(=O)OCc3ccc(B(O)O)cc3)C(NC(=O)c3ccccc3)c3ccccc3)C(C)=C1C2(C)C` (stereo not drawn) [Compound 4e, 2’-O-[3-((3-((4-boronobenzyl)oxy)-3-oxopropyl)disulfaneyl)propionyl]taxol], in assay [1], the concentration for 50% growth inhibition (GI50) was more than 100 nM.

On to `CC(=O)OC1C(=O)C2(C)C(O)CC3OCC3(OC(C)=O)C2C(OC(=O)c2ccccc2)C2(O)CC(OC(=O)C(OC(=O)c3ccc(B(O)O)cc3)C(NC(=O)c3ccccc3)c3ccccc3)C(C)=C1C2(C)C` (stereo not drawn) [Compound 6a, 2’-O-[4-boronobenzoyl]taxol], for which the GI50 in assay [1], in assay [2] and in assay [3] was more than 100 nM throughout.

In the case of `CC(=O)OC12COC1CC(O)C1(C)C(=O)C(O)C3=C(C)C(OC(=O)C(OC(=O)c4ccc(B(O)O)cc4)C(NC(=O)OC(C)(C)C)c4ccccc4)CC(O)(C(OC(=O)c4ccccc4)C21)C3(C)C` (stereo not drawn) [Compound 6b, 2’-O-[4-boronobenzoyl]docetaxel], the GI50 in assay [1] was more than 100 nM.

On to `CC(=O)OC1C(=O)C2(C)C(O)CC3OCC3(OC(C)=O)C2C(OC(=O)c2ccccc2)C2(O)CC(OC(=O)C(OC(=O)OCCCCCB(O)O)C(NC(=O)c3ccccc3)c3ccccc3)C(C)=C1C2(C)C` (stereo not drawn) [Compound 10a, 2’-O-[5-boronopentyl carbonate]taxol], for which the “inhibition % at fixed concentration, LO2 (printed in GI50 column)” value in assay [4] stood at 32.81%@2 μM. Moreover, the 50% growth inhibitory concentration (GI50) in assay [1], in assay [2] and in assay [3] was more than 100 nM throughout.

Consider `CC(=O)OC1C(=O)C2(C)C(O)CC3OCC3(OC(C)=O)C2C(OC(=O)c2ccccc2)C2(O)CC(OC(=O)C(OC(=O)OCCCCCCB(O)O)C(NC(=O)c3ccccc3)c3ccccc3)C(C)=C1C2(C)C` (stereo not drawn) [Compound 10b, 2’-O-[6-boronohexyl carbonate]taxol], for which the GI50 is 745 nM in assay [4], more than 100 nM in assay [1] and more than 100 nM in assay [3].

With `CC(=O)OC12COC1CC(O)C1(C)C(=O)C(O)C3=C(C)C(OC(=O)C(OC(=O)OCCCCCCB(O)O)C(NC(=O)OC(C)(C)C)c4ccccc4)CC(O)(C(OC(=O)c4ccccc4)C21)C3(C)C` (stereo not drawn) [Compound 10c, 2’-O-[6-boronohexyl carbonate] docetaxel], the GI50 in assay [4] was 273 nM. In addition, the “inhibition % at fixed concentration, 4T1 (printed in GI50 column)” value (shortened to “inhibition % at fixed concentration, 4T1”) in assay [1] is reported as 35.97%@100 nM. In assay [3] (@100 nM), the “inhibition % at fixed concentration, HCT-116 (printed in GI50 column)” value came out at 55.66%@100 nM.

On to `CC(=O)OC12COC1CC(O)C1(C)C(=O)C(O)C3=C(C)C(OC(=O)C(OC(=O)OCc4ccc(B(O)O)cc4)C(NC(=O)OC(C)(C)C)c4ccccc4)CC(O)(C(OC(=O)c4ccccc4)C21)C3(C)C` (stereo not drawn) [Compound 13b, 2’-O-[4-boronobenzyl carbonate] docetaxel], for which the GI50 in assay [1] stood at 33.1 nM.

Consider `CC(=O)OC1C(=O)C2(C)C(O)CC3OCC3(OC(C)=O)C2C(OC(=O)c2ccccc2)C2(O)CC(OC(=O)C(OC(=O)CCCB(O)O)C(NC(=O)c3ccccc3)c3ccccc3)C(C)=C1C2(C)C` (stereo not drawn) [Compound 17b, 2’-O-[4-boronobutanoyl]taxol], for which the “inhibition % at fixed concentration, LO2 (printed in GI50 column)” value in assay [4] worked out at 38.06%@2 μM. Besides, the “inhibition % at fixed concentration, 4T1” value in assay [1] amounted to 17.89%@100 nM. The figures for the GI50 in assay [2] and in assay [3] were 69.2 nM and 38.3 nM, respectively.

For `CC(=O)OC1C(=O)C2(C)C(O)CC3OCC3(OC(C)=O)C2C(OC(=O)c2ccccc2)C2(O)CC(OC(=O)C(OC(=O)CCCCCB(O)O)C(NC(=O)c3ccccc3)c3ccccc3)C(C)=C1C2(C)C` (stereo not drawn) [Compound 17d, 2’-O-[6-boronohexanoyl]taxol], the GI50 in assay [1], in assay [2] and in assay [3] was more than 100 nM throughout.

For the compound `CC(=O)OC1C(=O)C2(C)C(O)CC3OCC3(OC(C)=O)C2C(OC(=O)c2ccccc2)C2(O)CC(OC(=O)C(OC(=O)CCCCCCB(O)O)C(NC(=O)c3ccccc3)c3ccccc3)C(C)=C1C2(C)C` (stereo not drawn) [Compound 17e, 2’-O-[7-boronoheptanoyl]taxol], the GI50 in assay [1], in assay [2] and in assay [3] was more than 100 nM throughout.

Consider `CC(=O)OC12COC1CC(O)C1(C)C(=O)C(O)C3=C(C)C(OC(=O)C(OC(=O)CCCB(O)O)C(NC(=O)OC(C)(C)C)c4ccccc4)CC(O)(C(OC(=O)c4ccccc4)C21)C3(C)C` (stereo not drawn) [Compound 17f, 2’-O-[4-boronobutanoyl]docetaxel], for which the 50% growth inhibitory concentration (GI50) in assay [1] came out at 14.5 nM.

As for `CC(=O)OC12COC1CC(O)C1(C)C(=O)C(O)C3=C(C)C(OC(=O)C(OC(=O)CCCCCB(O)O)C(NC(=O)OC(C)(C)C)c4ccccc4)CC(O)(C(OC(=O)c4ccccc4)C21)C3(C)C` (stereo not drawn) [Compound 17g, 2’-O-[6-boronohexanoyl]docetaxel], the “inhibition % at fixed concentration, 4T1” value in assay [1] is reported as 35.83%@100 nM.
